Results: ChEMBL document CHEMBL3769397, “A new GLP-1 analogue with prolonged glucose-lowering activity in vivo via backbone-based modification at the N-terminus” (Bioorg Med Chem, 2016)

Columns and labels:
[1] = biological target: T1, DPP4 (dipeptidyl peptidase 4) (Homo sapiens, UniProt P27487); test: Drug degradation assessed as recombinant human DPP4-mediated cleavage by measuring compound remaining after 12 hrs by RP-HPLC analysis; format: ADME; conditions: read-out: Stability
[2] = biological target: T1, DPP4 (dipeptidyl peptidase 4); test: Half life of compound assessed as recombinant human DPP4-mediated cleavage by RP-HPLC analysis; format: ADME
[3] = biological target: T1, DPP4 (dipeptidyl peptidase 4); test: Drug degradation assessed as recombinant human DPP4-mediated cleavage by measuring compound remaining after 4 hrs by RP-HPLC analysis; format: ADME; conditions: read-out: Stability
[4] = biological target: T1, DPP4 (dipeptidyl peptidase 4); test: Drug degradation assessed as recombinant human DPP4-mediated cleavage by measuring compound remaining after 2 hrs by RP-HPLC analysis; format: ADME; conditions: read-out: Stability
[5] = Retention time of compound over 30 mins by HPLC analysis; format: physicochemical; conditions: 0.5 h
[6] = biological target: T1, DPP4 (dipeptidyl peptidase 4); test: Drug degradation assessed as recombinant human DPP4-mediated cleavage by measuring compound remaining after 8 hrs by RP-HPLC analysis; format: ADME; conditions: read-out: Stability
[7] = biological target: T1, DPP4 (dipeptidyl peptidase 4); test: Drug degradation assessed as recombinant human DPP4-mediated cleavage by measuring compound remaining after 1 hr by RP-HPLC analysis; format: ADME; conditions: read-out: Stability
[8] = biological target: T1, DPP4 (dipeptidyl peptidase 4); test: Drug degradation assessed as recombinant human DPP4-mediated cleavage by measuring compound remaining after 24 hrs by RP-HPLC analysis; format: ADME; conditions: read-out: Stability
[9] = biological target: T1, DPP4 (dipeptidyl peptidase 4); test: Drug degradation assessed as recombinant human DPP4-mediated cleavage by measuring compound remaining after 72 hrs by RP-HPLC analysis; format: ADME; conditions: read-out: Stability
[10] = biological target: T1, DPP4 (dipeptidyl peptidase 4); test: Drug degradation assessed as recombinant human DPP4-mediated cleavage by measuring compound remaining after 96 hrs by RP-HPLC analysis; format: ADME; conditions: read-out: Stability
[11] = biological target: T1, DPP4 (dipeptidyl peptidase 4); test: Drug degradation assessed as recombinant human DPP4-mediated cleavage by measuring compound remaining after 48 hrs by RP-HPLC analysis; format: ADME; conditions: read-out: Stability

T1 sequence (P27487 whole entry): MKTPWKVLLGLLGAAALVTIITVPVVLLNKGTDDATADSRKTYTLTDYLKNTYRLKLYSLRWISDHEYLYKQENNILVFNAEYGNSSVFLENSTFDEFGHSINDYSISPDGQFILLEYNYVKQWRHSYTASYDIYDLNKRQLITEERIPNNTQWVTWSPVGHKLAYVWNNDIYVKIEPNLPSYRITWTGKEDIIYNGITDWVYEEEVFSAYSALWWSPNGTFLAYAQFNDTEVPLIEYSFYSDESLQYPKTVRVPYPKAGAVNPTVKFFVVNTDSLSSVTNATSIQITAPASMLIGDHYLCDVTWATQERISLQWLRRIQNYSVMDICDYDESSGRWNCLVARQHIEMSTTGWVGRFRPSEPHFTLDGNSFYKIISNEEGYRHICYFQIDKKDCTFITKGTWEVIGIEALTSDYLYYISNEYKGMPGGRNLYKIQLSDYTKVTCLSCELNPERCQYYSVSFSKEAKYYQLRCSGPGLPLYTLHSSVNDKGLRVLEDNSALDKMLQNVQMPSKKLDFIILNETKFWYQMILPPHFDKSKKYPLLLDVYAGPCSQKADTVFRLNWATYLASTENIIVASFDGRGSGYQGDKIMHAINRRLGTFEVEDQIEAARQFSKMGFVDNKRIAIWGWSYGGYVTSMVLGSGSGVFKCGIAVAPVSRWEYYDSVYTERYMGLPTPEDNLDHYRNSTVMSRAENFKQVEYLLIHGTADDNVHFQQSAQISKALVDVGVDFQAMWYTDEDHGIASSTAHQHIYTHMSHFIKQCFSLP

| Structure (SMILES) | remaining at 12 h [1] [%] | half-life [2] [h] | remaining at 4 h [3] [%] | remaining at 2 h [4] [%] | Retention_time [5] [min] | remaining at 8 h [6] [%] | remaining at 1 h [7] [%] | remaining at 24 h [8] [%] | remaining at 72 h [9] [%] | remaining at 96 h [10] [%] | remaining at 48 h [11] [%] |
| --- | --- | --- | --- | --- | --- | --- | --- | --- | --- | --- | --- |
| CC[C@H](C)[C@H](NC(=O)[C@H](Cc1ccccc1)NC(=O)[C@H](CCC(=O)O)NC(=O)[C@H](CCCCN)NC(=O)[C@H](C)NC(=O)[C@H](C)NC(=O)[C@H](CCC(N)=O)NC(=O)CNC(=O)[C@H](CCC(=O)O)NC(=O)[C@H](CC(C)C)NC(=O)[C@H](Cc1ccc(O)cc1)NC(=O)[C@H](CO)NC(=O)[C@H](CO)NC(=O)[C@@H](NC(=O)[C@H](CC(=O)O)NC(=O)[C@H](CO)NC(=O)[C@@H](NC(=O)[C@H](Cc1ccccc1)NC(=O)[C@@H](NC(=O)CNC(=O)[C@H](CCC(=O)O)N(C)C(=O)[C@H](C)NC(=O)[C@@H](N)Cc1cnc[nH]1)[C@@H](C)O)[C@@H](C)O)C(C)C)C(=O)N[C@@H](C)C(=O)N[C@@H](Cc1c[nH]c2ccccc12)C(=O)N[C@@H](CC(C)C)C(=O)N[C@H](C(=O)N[C@@H](CCCCN)C(=O)NCC(=O)N[C@@H](CCCNC(=N)N)C(N)=O)C(C)C | 100 | > 96 | 100 | 100 | 14.612 | 100 | 100 |  |  |  |  |
| CC[C@H](C)[C@H](NC(=O)[C@H](Cc1ccccc1)NC(=O)[C@H](CCC(=O)O)NC(=O)[C@H](CCCCN)NC(=O)[C@H](C)NC(=O)[C@H](C)NC(=O)[C@H](CCC(N)=O)NC(=O)CNC(=O)[C@H](CCC(=O)O)NC(=O)[C@H](CC(C)C)NC(=O)[C@H](Cc1ccc(O)cc1)NC(=O)[C@H](CO)NC(=O)[C@H](CO)NC(=O)[C@@H](NC(=O)[C@H](CC(=O)O)NC(=O)[C@H](CO)NC(=O)[C@@H](NC(=O)[C@H](Cc1ccccc1)NC(=O)[C@@H](NC(=O)CNC(=O)[C@H](CCC(=O)O)NC(=O)C[C@H](C)NC(=O)[C@@H](N)Cc1cnc[nH]1)[C@@H](C)O)[C@@H](C)O)C(C)C)C(=O)N[C@@H](C)C(=O)N[C@@H](Cc1c[nH]c2ccccc12)C(=O)N[C@@H](CC(C)C)C(=O)N[C@H](C(=O)N[C@@H](CCCCN)C(=O)NCC(=O)N[C@@H](CCCNC(=N)N)C(=O)O)C(C)C | 100 | > 96 | 100 | 100 | 14.536 | 100 | 100 | 100 | 100 | 100 | 100 |
| CC[C@H](C)[C@H](NC(=O)[C@H](Cc1ccccc1)NC(=O)[C@H](CCC(=O)O)NC(=O)[C@H](CCCCN)NC(=O)[C@H](C)NC(=O)[C@H](C)NC(=O)[C@H](CCC(N)=O)NC(=O)CNC(=O)[C@H](CCC(=O)O)NC(=O)[C@H](CC(C)C)NC(=O)[C@H](Cc1ccc(O)cc1)NC(=O)[C@H](CO)NC(=O)[C@H](CO)NC(=O)[C@@H](NC(=O)[C@H](CC(=O)O)NC(=O)[C@H](CO)NC(=O)[C@@H](NC(=O)[C@H](Cc1ccccc1)NC(=O)[C@@H](NC(=O)CNC(=O)[C@H](CCC(=O)O)NC(=O)[C@H](C)N(C)C(=O)[C@@H](N)Cc1cnc[nH]1)[C@@H](C)O)[C@@H](C)O)C(C)C)C(=O)N[C@@H](C)C(=O)N[C@@H](Cc1c[nH]c2ccccc12)C(=O)N[C@@H](CC(C)C)C(=O)N[C@H](C(=O)N[C@@H](CCCCN)C(=O)NCC(=O)N[C@@H](CCCNC(=N)N)C(N)=O)C(C)C | 0 | 0.83 | 4.3 | 17.6 | 14.702 | 0 | 42.7 |  |  |  |  |
| CC[C@H](C)[C@H](NC(=O)[C@H](Cc1ccccc1)NC(=O)[C@H](CCC(=O)O)NC(=O)[C@H](CCCCN)NC(=O)[C@H](C)NC(=O)[C@H](C)NC(=O)[C@H](CCC(N)=O)NC(=O)CNC(=O)[C@H](CCC(=O)O)NC(=O)[C@H](CC(C)C)NC(=O)[C@H](Cc1ccc(O)cc1)NC(=O)[C@H](CO)NC(=O)[C@H](CO)NC(=O)[C@@H](NC(=O)[C@H](CC(=O)O)NC(=O)[C@H](CO)NC(=O)[C@@H](NC(=O)[C@H](Cc1ccccc1)N(C)C(=O)[C@@H](NC(=O)CNC(=O)[C@H](CCC(=O)O)NC(=O)[C@H](C)NC(=O)[C@@H](N)Cc1cnc[nH]1)[C@@H](C)O)[C@@H](C)O)C(C)C)C(=O)N[C@@H](C)C(=O)N[C@@H](Cc1c[nH]c2ccccc12)C(=O)N[C@@H](CC(C)C)C(=O)N[C@H](C(=O)N[C@@H](CCCCN)C(=O)NCC(=O)N[C@@H](CCCNC(=N)N)C(=O)O)C(C)C | 6.1 | 3.46 | 42.7 | 66.3 | 14.127 | 17.6 | 79.4 |  |  |  |  |
| CC[C@H](C)[C@H](NC(=O)[C@H](Cc1ccccc1)NC(=O)[C@H](CCC(=O)O)NC(=O)[C@H](CCCCN)NC(=O)[C@H](C)NC(=O)[C@H](C)NC(=O)[C@H](CCC(N)=O)NC(=O)CNC(=O)[C@H](CCC(=O)O)NC(=O)[C@H](CC(C)C)NC(=O)[C@H](Cc1ccc(O)cc1)NC(=O)[C@H](CO)NC(=O)[C@H](CO)NC(=O)[C@@H](NC(=O)[C@H](CC(=O)O)NC(=O)[C@H](CO)NC(=O)[C@@H](NC(=O)[C@H](Cc1ccccc1)NC(=O)[C@@H](NC(=O)CNC(=O)[C@H](CCC(=O)O)NC(=O)[C@H](C)NC(=O)[C@@H](N)Cc1c[nH]cn1)[C@@H](C)O)[C@@H](C)O)C(C)C)C(=O)N[C@@H](C)C(=O)N[C@@H](Cc1c[nH]c2ccccc12)C(=O)N[C@@H](CC(C)C)C(=O)N[C@H](C(=O)N[C@@H](CCCCN)C(=O)NCC(=O)N[C@@H](CCCNC(=N)N)C(N)=O)C(C)C |  |  |  |  | 14.611 |  |  |  |  |  |  |
| CC[C@H](C)[C@H](NC(=O)[C@H](Cc1ccccc1)NC(=O)[C@H](CCC(=O)O)NC(=O)[C@H](CCCCN)NC(=O)[C@H](C)NC(=O)[C@H](C)NC(=O)[C@H](CCC(N)=O)NC(=O)CNC(=O)[C@H](CCC(=O)O)NC(=O)[C@H](CC(C)C)NC(=O)[C@H](Cc1ccc(O)cc1)NC(=O)[C@H](CO)NC(=O)[C@H](CO)NC(=O)[C@@H](NC(=O)[C@H](CC(=O)O)NC(=O)[C@H](CO)NC(=O)[C@@H](NC(=O)[C@H](Cc1ccccc1)NC(=O)[C@H]([C@@H](C)O)N(C)C(=O)CNC(=O)[C@H](CCC(=O)O)NC(=O)[C@H](C)NC(=O)[C@@H](N)Cc1cnc[nH]1)[C@@H](C)O)C(C)C)C(=O)N[C@@H](C)C(=O)N[C@@H](Cc1c[nH]c2ccccc12)C(=O)N[C@@H](CC(C)C)C(=O)N[C@H](C(=O)N[C@@H](CCCCN)C(=O)NCC(=O)N[C@@H](CCCNC(=N)N)C(N)=O)C(C)C | 0 | 2.7 | 33.2 | 55.4 | 14.721 | 10.7 | 69.8 |  |  |  |  |
| CC[C@H](C)[C@H](NC(=O)[C@H](Cc1ccccc1)NC(=O)[C@H](CCC(=O)O)NC(=O)[C@H](CCCCN)NC(=O)[C@H](C)NC(=O)[C@H](C)NC(=O)[C@H](CCC(N)=O)NC(=O)CNC(=O)[C@H](CCC(=O)O)NC(=O)[C@H](CC(C)C)NC(=O)[C@H](Cc1ccc(O)cc1)NC(=O)[C@H](CO)NC(=O)[C@H](CO)NC(=O)[C@@H](NC(=O)[C@H](CC(=O)O)NC(=O)[C@H](CO)NC(=O)[C@@H](NC(=O)[C@H](Cc1ccccc1)NC(=O)[C@@H](NC(=O)CNC(=O)[C@H](CCC(=O)O)NC(=O)[C@H](C)CNC(=O)[C@@H](N)Cc1cnc[nH]1)[C@@H](C)O)[C@@H](C)O)C(C)C)C(=O)N[C@@H](C)C(=O)N[C@@H](Cc1c[nH]c2ccccc12)C(=O)N[C@@H](CC(C)C)C(=O)N[C@H](C(=O)N[C@@H](CCCCN)C(=O)NCC(=O)N[C@@H](CCCNC(=N)N)C(N)=O)C(C)C | 100 | > 96 |  |  | 14.005 |  |  | 100 | 100 | 100 | 100 |
| CC[C@H](C)[C@H](NC(=O)[C@H](Cc1ccccc1)NC(=O)[C@H](CCC(=O)O)NC(=O)[C@H](CCCCN)NC(=O)[C@H](C)NC(=O)[C@H](C)NC(=O)[C@H](CCC(N)=O)NC(=O)CNC(=O)[C@H](CCC(=O)O)NC(=O)[C@H](CC(C)C)NC(=O)[C@H](Cc1ccc(O)cc1)NC(=O)[C@H](CO)NC(=O)[C@H](CO)NC(=O)[C@@H](NC(=O)[C@H](CC(=O)O)NC(=O)[C@H](CO)NC(=O)[C@@H](NC(=O)[C@H](Cc1ccccc1)NC(=O)[C@@H](NC(=O)CNC(=O)C[C@@H](CCC(=O)O)NC(=O)[C@H](C)NC(=O)[C@@H](N)Cc1cnc[nH]1)[C@@H](C)O)[C@@H](C)O)C(C)C)C(=O)N[C@@H](C)C(=O)N[C@@H](Cc1c[nH]c2ccccc12)C(=O)N[C@@H](CC(C)C)C(=O)N[C@H](C(=O)N[C@@H](CCCCN)C(=O)NCC(=O)N[C@@H](CCCNC(=N)N)C(N)=O)C(C)C | 82.9 | 96 |  |  | 14.669 |  |  | 72.7 | 54 | 41.7 | 61.3 |
| CC[C@H](C)[C@H](NC(=O)[C@H](Cc1ccccc1)NC(=O)[C@H](CCC(=O)O)NC(=O)[C@H](CCCCN)NC(=O)[C@H](C)NC(=O)[C@H](C)NC(=O)[C@H](CCC(N)=O)NC(=O)CNC(=O)[C@H](CCC(=O)O)NC(=O)[C@H](CC(C)C)NC(=O)[C@H](Cc1ccc(O)cc1)NC(=O)[C@H](CO)NC(=O)[C@H](CO)NC(=O)[C@@H](NC(=O)[C@H](CC(=O)O)NC(=O)[C@H](CO)NC(=O)[C@@H](NC(=O)[C@H](Cc1ccccc1)NC(=O)[C@@H](NC(=O)CN(C)C(=O)[C@H](CCC(=O)O)NC(=O)[C@H](C)NC(=O)[C@@H](N)Cc1cnc[nH]1)[C@@H](C)O)[C@@H](C)O)C(C)C)C(=O)N[C@@H](C)C(=O)N[C@@H](Cc1c[nH]c2ccccc12)C(=O)N[C@@H](CC(C)C)C(=O)N[C@H](C(=O)N[C@@H](CCCCN)C(=O)NCC(=O)N[C@@H](CCCNC(=N)N)C(N)=O)C(C)C | 7.5 | 2.42 | 32.6 | 55.5 | 14.289 | 15.1 | 75.1 |  |  |  |  |
